According to patent publication EP0006718A1, “1.2.4-Triazolidine-3.5-dione derivatives, process for their preparation and pharmaceutical compositions containing them” (BEECHAM GROUP PLC, priority 1978, dated 1980):

How the values were obtained:
[1] = system: 5-hydroxy-tryptamine or histamine induced bronchoconstriction; test: Broncho-dilation activity: inhibition of induced bronchoconstriction (Konzett-Rossler preparation); format: in vivo; conditions: Cavia porcellus, iv; anaesthetised artificially respired guinea-pig; read-out: ED 50 value for inhibition of bronchoconstriction
Excerpt: The compound of Example 4 was examined for its ability to inhibit 5-hydroxy-tryptamine or histamine induced bron- choconstrictioh in the anaesthetised artifically respired guinea-pig (Konzett-Rossler preparation).

[2] = system: indomethacin induced gastric damage; test: Anti-ulcer activity: inhibition of indomethacin induced gastric damage (method of Eleghe); format: in vivo; conditions: Rattus norvegicus, 30 minutes before 15mg/kg indomethacin s.c., rats sacrificed 4 hours later
Experimental: Anti-ulcer activity of the compound of Example 4 was assessed by the inhibition of indomethacin induced gastric damage in the rat according to the method of Eleghe (1974) Israeli J. Med. Sci. 10. 1451. Rats were starved overnight given 15mg/kg indomethacin subcutaneously and sacrificed 4 hours later. Stomachs were reflated with n. saline, cut along the greater curvature pinned out and scored for gastric damage.
Groups of 7 rats were used for each treatment and the test compound or vehicle was administered 30 minutes prior to giving the indomethacin. Varying doses of test compound were administered orally and control groups receiving vehicle only were set up simultaneously. Mean values for each treatment were obtained and the Mann Witney test applied for significance of difference between the values obtained with the treatments.

Cn1c(=O)n(CCCCCCC(=O)O)n(CCC(C)(O)COc2ccccc2)c1=O (stereo not shown) [Example 4, 1-(6'-carboxyhexyl)-2-(3"-hydroxy-3"-methyl-4"-phenoxybutyl)-4-methyl'-1,2,4-triazolidine-3,5-dione] showed an ED50 [1] of 0.039 mg/kg, an inhibition at 25 mg/kg ([2]; 25 mg/kg p.o.) of 56% and an inhibition at 50 mg/kg ([2]; 50 mg/kg p.o.) of 50%. For the same molecule, the inhibition at 100 mg/kg ([2]; 100 mg/kg p.o.) was 92%.
